Measured values reported in patent US9504248B2, “Antimicrobial composition” (Rohm and Haas Company, priority 2011, dated 2016).
≈ marks a conversion by molar mass, not a printed value.

Tested on: Escherichia coli (E. coli - ATCC #10536)
Experiment: Automated assessment of efficacy in surfactant base, 15 seconds exposure, OD450/OD590 readout (Example 4)
Assay type: cell-based
Conditions: cocoyl glycinate and lauroamphoacetate
Method: In these examples, the efficacy of combinations of monosubstituted phenols and terpineol were tested in a surfactant cleansing formulation comprising 2.85% sodium cocoyl glycinate and 1.85% sodium lauroamphoacetate. This corresponds to a 50% in use dilution with water of a typical neat formulation containing 5.7% cocoyl glycinate and 3.7% % sodium lauroamphoacetate during hand washing. Solutions were prepared such that the concentrations of the surfactant components and test actives were 1.1 times the final desired concentration in order to allow for dilution with the bacterial inoculum in the test. The solutions were manually adjusted to pH 10.0 by dropwise addition of sodium hydroxide solution, as measured with a pH meter at ambient temperature. Solutions of the monosubstituted phenols and/or terpineols were prepared at a maximum of 24 hours before testing. The same terpineol was used as in Example 1.
The efficacy of the combinations of the present invention was determined against the same bacterium as in Example 1, Escherichia coli (E. coli—ATCC #10536), at a concentration of approximately 1×10^8 bacteria per mL.
Tests were conducted using standard microtiter plate assays using an automated liquid handling system. 270 μl of the surfactant test solution was pipetted into each well of the microtitre plate (Nunc F Gamma Irradiated 96F untreated microtitre plates of clear polystyrene) and 30 μl of the bacterial suspension was then added. After exactly 15 seconds of bacterial exposure, a 30 μl volume of bacterial cells was withdrawn and transferred to 270 μl of D/E quench solution. After 5 minutes in the D/E quench, the optical density (OD) was measured for each plate in turn at two specific wavelengths (450 nm and 590 nm). These provide a dual check of antimicrobial activity, as the OD450 reading is specific for the yellow colour of D/E quench when bacterial growth is observed, whereas OD590 is specific for the initial purple colour of the D/E quench which is retained if no bacterial growth is observed. After the time zero OD measurements, plates were then incubated at 37° C. overnight (16 hours) before repeating the OD measurements. Delta OD values were calculated by subtracting […] at time=16 hours. Bacterial growth is observed as an increase in OD450 and a decrease in OD590. To identify antibacterially efficacious systems (those preventing appreciable bacterial growth after incubation), the following threshold changes in OD readings have been adopted: if (1). OD450 increases by less than 0.2 absorbance unit (AU) on incubation and (2). OD590 decreases by less than 0.35 AU on incubation. Conversely, where OD450 increases by more than […] after incubation, corresponding to a colour shift from purple to yellow, the test system allows bacterial growth and is not deemed efficacious. Four replicate measurements in the same plate have been made for each test system. The number of replicate wells showing either bacterial growth or no growth is also readily assessed by eye by following the colour change. Thymol and terpineol were tested both alone and in combination for comparison purposes.
In some selected cases, the combinations were also tested at the weight ratio 1:1.
The surfactants used are not themselves antimicrobially active against E. coli at the concentrations employed as shown by the results of Ex. (4:1) in Table 24. Thus, any antimicrobial efficacy can be ascribed to the monosubstituted phenols and/or terpineol. Table 25 presents MBC-values determined similarly as described for Example 1.

Row | SMILES | antimicrobial action in combination with terpineol in the presence of surfactant (in words)
1 | Oc1cccc(-c2ccccc2)c1 [3-phenylphenol] | enhanced antimicrobial action
2 | CC(C)(C)c1cccc(O)c1 [3-tert-butylphenol] | enhanced antimicrobial action
3 | CCCCc1ccc(O)cc1 [4-n-butylphenol] | enhanced antimicrobial action
4 | CCC(C)c1ccc(O)cc1 (centres unmarked) [4-sec-butylphenol] | enhanced antimicrobial action
5 | CC(C)(C)c1ccc(O)cc1 [4-tert-butylphenol] | enhanced antimicrobial action
6 | C/C=C/c1ccccc1O [(E)-2-(prop-1-enyl)phenol] | enhanced antimicrobial action

Tested on: Escherichia coli (10536 strain)
Experiment: 15 second contact suspension kill assay (Example 1 protocol, also Example 3)
Assay type: cell-based
Conditions: 15 s contact
Excerpt: The efficacies of antimicrobial agents can be usefully compared by determining the Minimum Biocidal Concentration (MBC). The MBC is defined as the lowest absolute concentration of the particular active that provides complete kill (zero bacterial growth). The differing behaviours of inhibitory antimicrobtals in Isolation and mixtures have been widely explored using the concept of the Fractional Concentration and Fractional Inhibitory Concentration (FIC). See for instance J R W Lambert and R Lambert, J. Appl. Microblol 95, 734 (2003); T. Jadavji. C G Prober and R Cheung. Antimicrobial Agents and Chemotherapy 26, 91 (1984), and WO 2004/006876. These parameters can be defined as follows:
[formula] [formula] By analogy the Fractional Biocidal Concentration (FBC) is given by:
Antimicrobial efficacy is tested against a representative pathogenic bacterial organism, Gram negative Escherichia coli. Concentrations of actives are expressed in terms of the percentage weight/volume (% w/v) throughout Example 1.
An overnight culture of Escherichia coli (10536 strain) was prepared in 50 ml total volume of TSB broth, grown for ca. 18 hrs at 37° C. and shaken at 150 rpm. 1 ml of this overnight E. coli culture was transferred to 50 ml of fresh TSB broth and incubated at 37° C. at 150 rpm for ca. 4 hours. This culture was separated into equal volumes and centrifuged at 4000 rpm for 15 minutes, washed with sterile saline (0.85% NaCl), centrifuged once more and re-suspended in saline to give a final concentration of 0.8 OD620 equivalent to about 10^8 cells per milliliter for this particular organism. Here, OD620 indicates the absorbance of a sample in a cuvette of 1.0 cm path length at a wavelength of 620 nm. This bacterial stock was used for assaying against antimicrobial actives (in triplicate).
The following assay describes the testing of 8 materials using 6 dilutions across half of a 96-well micro titre plate (MTP). Using this approach it is possible to assay 16 actives (without replicates) with one full dilution plate, replicating this set up in two halves of the plate columns, 1-6 and 7-12.
1M solutions of the test actives were prepared in dimethylsulphoxide (DMSO).
Aliquots (270 μl) of the materials at 1.11 times the final concentration were dispensed into the wells of the MTP along one column (A1-H1). This MTP was labelled as the “Screening plate”.
In another MTP, labelled as the “Dilution plate”, 270 μl of D/E neutralising solution from DIFCO Composition was added to column 1. The composition of the neutralising solution was as follows: pancreatic digest of casein, 5.0 g/L; Yeast Extract, 2.5 g/L; Dextrose, 10 g/L, sodium thioglycollate, 1.0 g/L, sodium thiosulphate, 6.0 g/L; sodium bisulphite, 2.5 g/L; Polysorbate 80, 5.0 g/L; lecithin 7.0 g/L; bromocresol purple, 0.02 g/L with a pH in the range 7.6±0.2.
270 μl of tryptone diluent solution was added to all the remaining wells of the Dilution MTP (columns 2-6).
Bacterial stock (30 μl) was then added to the prepared 270 μl of the solution of actives in the Screening Plate and mixed, using a multichannel pipette with 8 tips to aspirate and dispense the same volume of bacterial stock in parallel to 8 wells in rows A-H. After a contact time of 15 seconds, the mixtures were quenched by transferring 30 μl volumes of the mixtures into the 270 μl D/E neutralising solution in the prepared dilution plate, using aspiration to mix. After exactly 5 minutes in the DIE neutralising solution, 30 μl volumes were transferred from column 1 to column 2 of the Dilution MTP and mixed, before transferring further 30 μl volumes from column 2 into column 3. This process was repeated serially diluting the bacteria across the plate to column 6.
30 μl volumes from each well in the Dilution MTP were transferred onto pre-labelled segment of Tryptone Soya Agar (TSA) plates starting from the lowest bacterial concentration (highest dilution, column 6) to the highest bacterial concentration (column 1).

Row | SMILES | bacterial kill (in words)
7 | Cc1ccc(C(C)C)c(O)c1 [A, thymol, reference compound] | not showing bacterial kill
8 | CC1=CCC(C(C)(C)O)CC1 (stereo not drawn) [B, alpha-terpineol, reference compound] | not showing bacterial kill

Same assay, conditions: 15 s contact; active concentrations (% w/v) as defined per example; 0 = complete kill; mean of triplicate

Row | SMILES | NMBS, mean bacterial survival [log CFU/ml]
9 | CC1=CCC(C(C)(C)O)CC1 (stereo not drawn) [1:4, alpha-terpineol] | 0
10 | CC1=CCC(C(C)(C)O)CC1 (stereo not drawn) [1:5, alpha-terpineol] | 0
11 | CC1=CCC(C(C)(C)O)CC1 (stereo not drawn) [1:6, alpha-terpineol] | 7
12 | CC1=CCC(C(C)(C)O)CC1 (stereo not drawn) [1:7, alpha-terpineol] | 7
13 | CCCc1ccc(O)cc1 [1:8, 4-n-propylphenol] | 0
14 | CCCc1ccc(O)cc1 [1:9, 4-n-propylphenol] | 7.8
15 | CCCCc1ccc(O)cc1 [1:12, 4-n-butylphenol] | 0
16 | CCCCc1ccc(O)cc1 [1:13, 4-butylphenol] | 7.0
17 | CCCCCc1ccc(O)cc1 [1:15, 4-n-pentylphenol] | 0
18 | CCCCCc1ccc(O)cc1 [1:16, 4-pentylphenol] | 6.6
19 | CC(C)(C)c1ccccc1O [1:18, 2-tert-butylphenol] | 0
20 | CC(C)(C)c1ccccc1O [1:19, 2-tert-butylphenol] | 7.5
21 | CC(C)(C)c1cccc(O)c1 [1:21, 3-tert-butylphenol] | 0
22 | CC(C)(C)c1cccc(O)c1 [1:22, 3-tert-butylphenol] | 7.6
23 | CCC(C)c1ccccc1O (centres unmarked) [1:24, 2-sec-butylphenol] | 0
24 | CCC(C)c1ccccc1O (centres unmarked) [1:25, 2-sec-butylphenol] | 7.5
25 | CCC(C)c1ccc(O)cc1 (centres unmarked) [1:27, 4-sec-butylphenol] | 0

Row | SMILES | NMBS, mean bacterial survival [log CFU/ml]
26 | CCC(C)c1ccc(O)cc1 (centres unmarked) [1:28, 4-sec-butylphenol] | 4.1
27 | CCC(C)c1ccc(O)cc1 (centres unmarked) [1:29, 4-sec-butylphenol] | 7.6
28 | Oc1ccccc1C1CCCC1 [1:31, 2-cyclopentylphenol] | 0
29 | Oc1ccccc1C1CCCC1 [1:32, 2-cyclopentylphenol] | 3.4
30 | Oc1ccccc1C1CCCC1 [1:33, 2-cyclopentylphenol] | 7.5
31 | Oc1ccc(C2CCCC2)cc1 [1:35, 4-cyclopentylphenol] | 0
32 | Oc1ccc(C2CCCC2)cc1 [1:36, 4-cyclopentylphenol] | 7.1
33 | C/C=C/c1ccccc1O [1:38, (E)-2-(prop-1-enyl)phenol] | 0
34 | C/C=C/c1ccccc1O [1:39, (E)-2-(prop-1-enyl)phenol] | 6.9
35 | Oc1ccccc1Cc1ccccc1 [1:41, 2-benzylphenol] | 0
36 | Oc1ccccc1Cc1ccccc1 [1:42, 2-benzylphenol] | 7.1
37 | Oc1ccc(Cc2ccccc2)cc1 [1:44, 4-benzylphenol] | 0
38 | Oc1ccc(Cc2ccccc2)cc1 [1:45, 4-benzylphenol] | 3.8
39 | Oc1cccc(-c2ccccc2)c1 [3:1, 3-phenylphenol] | 4.3
40 | Oc1cccc(-c2ccccc2)c1 [3:2, 3-phenylphenol] | 7.4
41 | Oc1cccc(-c2ccccc2)c1 [3:3, 3-phenylphenol] | 7.7

Same assay, conditions: Escherichia coli, 15 s, read-out: Minimum biocidal concentration (MBC)

Row | SMILES | MBC [µg/mL]
42 | C/C=C/c1ccccc1O [(E)-2-(prop-1-enyl)phenol] | 1500 (≈ 11.2 mM)

Same assay, conditions: Escherichia coli, 15 s, read-out: Minimum biocidal concentration (MBC), component alone; lowest tested concentration giving zero bacterial survival after 15 s; upper boundary

Row | SMILES | MBC [µg/mL]
43 | Oc1cccc(-c2ccccc2)c1 [3-phenylphenol] | ≥ 1250

Same assay, conditions: Escherichia coli, 15 s; component alone; lowest tested concentration giving zero bacterial survival after 15 s; upper boundary; read-out: Minimum biocidal concentration (MBC)

Row | SMILES | MBC [µg/mL]
44 | CC(C)(C)c1cccc(O)c1 [3-tert-butylphenol] | 800 (≈ 5.33 mM)
45 | CCCCc1ccc(O)cc1 [4-n-butylphenol] | 250 (≈ 1.66 mM)
46 | CCC(C)c1ccc(O)cc1 (centres unmarked) [4-sec-butylphenol] | 800 (≈ 5.33 mM)
47 | Cc1ccc(C(C)C)c(O)c1 [Thymol, thymol, reference compound] | 500 (≈ 3.33 mM)
